Laboratory results as given in patent US9096596B2 (Janssen Pharmaceutica NV, priority 2013, dated 2015).

How the values were obtained:
Type in all cases: cell-based
P2X7 [1] = molecular target: T1, P2X7 (Homo sapiens (Human), UniProt Q99572); assay: Ca2+ flux (FLIPR) in 1321N1 cells expressing recombinant human P2X7 channel; settings: 250 μM BzATP, Calcium-4 dye
Procedure: (§1) 1321N1 cells expressing the recombinant human, rat or mouse P2X7 channel was cultured in HyQ DME/(HyClone/Dulbecco's Modified Eagle Medium) high glucose supplemented with 10% Fetal Bovine Serum (FBS) and appropriate selection marker. Cells were seeded at a density of 25000 cells/well (96-well clear bottom black walled plates) in 100 μl volume/well. On the day of the experiment, cell plates were washed with assay buffer, containing (in mM): 130 NaCl, 2 KCl, 1 CaCl2, 1 MgCl2, 10 HEPES, 5 glucose; pH 7.40 and 300 mOs. After the wash, cells were loaded with the Calcium-4 dye (Molecular Device) and incubated in the dark for 60 minutes. Test compounds were prepared at 250× the test concentration in neat DMSO. Intermediate 96-well compound plates were prepared by transferring 1.2 μL of the compound into 300 μL of assay buffer. A further 3× dilution occurred when transferring 50 μL/well of the compound plate to 100 μL/well in the cell plate. Cells were incubated with test compounds and dye for 30 minutes. […] The fluorescence change was measured 180 seconds after adding the agonist.

rat P2X7 = rat P2X7 (Rattus norvegicus (Rat), UniProt Q64663); assay: Ca2+ flux (FLIPR) in 1321N1 cells expressing recombinant rat P2X7 channel; settings: 250 μM BzATP, Calcium-4 dye
Chain of rat P2X7 (Q64663 whole entry): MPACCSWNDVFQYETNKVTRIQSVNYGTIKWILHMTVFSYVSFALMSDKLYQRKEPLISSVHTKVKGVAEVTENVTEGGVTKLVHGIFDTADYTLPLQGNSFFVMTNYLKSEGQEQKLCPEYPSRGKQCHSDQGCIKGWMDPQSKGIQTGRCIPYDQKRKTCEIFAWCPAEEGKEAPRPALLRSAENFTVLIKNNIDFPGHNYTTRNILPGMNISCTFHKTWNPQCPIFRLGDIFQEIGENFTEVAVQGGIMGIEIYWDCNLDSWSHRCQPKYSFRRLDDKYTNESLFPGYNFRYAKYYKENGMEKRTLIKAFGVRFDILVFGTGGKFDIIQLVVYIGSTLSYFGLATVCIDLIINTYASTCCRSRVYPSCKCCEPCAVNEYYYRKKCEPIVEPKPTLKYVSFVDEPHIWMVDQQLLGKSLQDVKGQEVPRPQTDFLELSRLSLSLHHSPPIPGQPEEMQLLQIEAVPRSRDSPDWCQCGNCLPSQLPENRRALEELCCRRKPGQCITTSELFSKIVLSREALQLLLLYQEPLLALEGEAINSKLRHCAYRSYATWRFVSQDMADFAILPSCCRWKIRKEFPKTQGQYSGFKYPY
Procedure: as §1

P2X7 [2] = molecular target: T1, P2X7; assay: P2X7 antagonism in human PBMCs (IL-1β release, ELISA); settings: test compound 10 μM, IL-1β release in human PBMCs, LPS 30 ng/ml + Bz-ATP 0.5 mM, read-out: PBMC 10 μM (% control)
Procedure: Human blood was collected using a blood donor program. […] Cells were incubated for an additional 1.5 hours. […] In Table 2, when the data cell has been left blank, it is intended to mean that the compound was not tested in that assay.

T1 sequence (Q99572 whole entry): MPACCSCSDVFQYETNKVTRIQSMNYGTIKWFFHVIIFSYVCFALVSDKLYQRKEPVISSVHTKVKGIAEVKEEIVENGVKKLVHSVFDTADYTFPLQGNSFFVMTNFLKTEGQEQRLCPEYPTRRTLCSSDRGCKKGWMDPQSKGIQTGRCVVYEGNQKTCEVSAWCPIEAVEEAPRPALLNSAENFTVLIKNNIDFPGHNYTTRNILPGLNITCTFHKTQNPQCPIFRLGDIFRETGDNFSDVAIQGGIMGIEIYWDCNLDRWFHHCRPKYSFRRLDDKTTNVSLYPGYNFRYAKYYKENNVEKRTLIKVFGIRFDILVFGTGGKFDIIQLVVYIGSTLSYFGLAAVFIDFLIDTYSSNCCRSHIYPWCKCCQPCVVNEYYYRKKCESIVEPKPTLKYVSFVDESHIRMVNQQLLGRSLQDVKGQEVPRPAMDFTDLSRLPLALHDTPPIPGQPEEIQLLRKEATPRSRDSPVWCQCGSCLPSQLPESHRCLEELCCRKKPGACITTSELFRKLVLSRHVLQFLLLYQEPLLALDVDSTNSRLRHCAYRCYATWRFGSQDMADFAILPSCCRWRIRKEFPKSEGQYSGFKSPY

Row | SMILES | IC50 (P2X7 [1]) | IC50 (rat P2X7) | remaining activity at 10 µM (P2X7 [2])
1 | O=C(c1cccc(Cl)c1Cl)N1CCc2c(ncnc2-n2cccn2)C1 [Example 22, 7-[(2,3-Dichlorophenyl)carbonyl]-4-(1H-pyrazol-1-yl)-5,6,7,8-tetrahydropyrido[3,4-d]pyrimidine] | 198 nM | 28100 nM | –
2 | Cn1cc(-c2ncnc3c2CCN(C(=O)c2cccc(Cl)c2Cl)C3)cn1 [Example 5, 7-[(2,3-Dichlorophenyl)carbonyl]-4-(1-methyl-1H-pyrazol-4-yl)-5,6,7,8-tetrahydropyrido[3,4-d]pyrimidine] | 12800 nM | > 10000 nM | –
3 | Nc1nc2c(c(-c3ccn[nH]3)n1)CCN(C(=O)c1cccc(C(F)(F)F)c1Cl)C2 [Example 55, 7-{[2-Chloro-3-(trifluoromethyl)phenyl]carbonyl}-4-(1H-pyrazol-5-yl)-5,6,7,8-tetrahydropyrido[3,4-d]pyrimidin-2-amine] | – | 117 nM | -2.1%
4 | Nc1nc2c(c(-c3ccccc3)n1)CCN(C(=O)c1cccc(Cl)c1Cl)C2 [Example 29, 7-[(2,3-Dichlorophenyl)carbonyl]-4-phenyl-5,6,7,8-tetrahydropyrido[3,4-d]pyrimidin-2-amine] | 796 nM | – | –
5 | O=C(c1cccc(Cl)c1Cl)N1CCc2c(ncnc2-c2cn[nH]c2)C1 [Example 4, 7-[(2,3-Dichlorophenyl)carbonyl]-4-(1H-pyrazol-4-yl)-5,6,7,8-tetrahydropyrido[3,4-d]pyrimidine] | 388 nM | 12500 nM | –
6 | CN(C)c1nc2c(c(-c3ccccc3)n1)CCN(C(=O)c1cccc(C(F)(F)F)c1Cl)C2 [Example 26, 7-{[2-Chloro-3-(trifluoromethyl)phenyl]carbonyl}-N,N-dimethyl-4-phenyl-5,6,7,8-tetrahydropyrido[3,4-d]pyrimidin-2-amine] | – | – | 16.1%
7 | Cc1cccc(C(=O)N2CCc3c(ncnc3-c3ccccn3)C2)c1Cl [Example 13, 7-[(2-Chloro-3-methylphenyl)carbonyl]-4-pyridin-2-yl-5,6,7,8-tetrahydropyrido[3,4-d]pyrimidine] | – | – | 13.4%
8 | Cc1noc(C)c1-c1ncnc2c1CCN(C(=O)c1cccc(C(F)(F)F)c1Cl)C2 [Example 50, 7-{[2-Chloro-3-(trifluoromethyl)phenyl]carbonyl}-4-(3,5-dimethylisoxazol-4-yl)-5,6,7,8-tetrahydropyrido[3,4-d]pyrimidine] | – | – | 83.5%
9 | Cc1nc2c(c(-c3cnoc3)n1)CCN(C(=O)c1cccc(C(F)(F)F)c1Cl)C2 [Example 49, 7-{[2-Chloro-3-(trifluoromethyl)phenyl]carbonyl}-4-isoxazol-4-yl-2-methyl-5,6,7,8-tetrahydropyrido[3,4-d]pyrimidine] | – | – | 16.3%
10 | Cc1nc2c(c(-c3ccccn3)n1)CCN(C(=O)c1cccc(Cl)c1Cl)C2 [Example 31, 7-[(2,3-Dichlorophenyl)carbonyl]-2-methyl-4-pyridin-2-yl-5,6,7,8-tetrahydropyrido[3,4-d]pyrimidine] | – | – | 9.2%
11 | Cc1nc2c(c(-c3ccccc3)n1)CCN(C(=O)c1cccc(C(F)(F)F)c1Cl)C2 [Example 32, 7-{[2-Chloro-3-(trifluoromethyl)phenyl]carbonyl}-2-methyl-4-phenyl-5,6,7,8-tetrahydropyrido[3,4-d]pyrimidine] | 265 nM | – | –
12 | Cc1nc2c(c(-c3ccc(F)cc3)n1)CCN(C(=O)c1cccc(Cl)c1Cl)C2 [Example 28, 7-[(2,3-Dichlorophenyl)carbonyl]-4-(4-fluorophenyl)-2-methyl-5,6,7,8-tetrahydropyrido[3,4-d]pyrimidine] | – | 8570 nM | 12.4%
13 | Cc1nc2c(c(-c3ccn[nH]3)n1)CC(C)N(C(=O)c1ccc(F)c(C(F)(F)F)c1Cl)C2 (stereo not drawn) [Example 64, (2-chloro-4-fluoro-3-(trifluoromethyl)phenyl)(2,6-dimethyl-4-(1H-pyrazol-5-yl)-5,6-dihydropyrido[3,4-d]pyrimidin-7(8H)-yl)methanone] | – | – | -2.1%

The next lines start with the values.

Row | IC50 (P2X7 [1]) | IC50 (rat P2X7) | remaining activity at 10 µM (P2X7 [2]) | SMILES
14 | 3240 nM | – | – | Cc1nc2c(c(-c3ccn[nH]3)n1)C[C@H](C)N(C(=O)c1cccc(C(F)(F)F)c1C)C2 (single isomer, unassigned) [Example 79, (S*)-(2,6-dimethyl-4-(1H-pyrazol-5-yl)-5,6-dihydropyrido[3,4-d]pyrimidin-7(8H)-yl)(2-methyl-3-(trifluoromethyl)phenyl)methanone]
15 | > 10000 nM | > 10000 nM | – | COCCn1ccc(-c2nc(C)nc3c2C[C@H](C)N(C(=O)c2cccc(C(F)(F)F)c2Cl)C3)n1 (single isomer, unassigned) [Example 127, (S*)-(2-chloro-3-(trifluoromethyl)phenyl)(4-(1-(2-methoxyethyl)-1H-pyrazol-3-yl)-2,6-dimethyl-5,6-dihydropyrido[3,4-d]pyrimidin-7(8H)-yl)methanone]
16 | > 10000 nM | > 10000 nM | – | Cc1nc2c(c(-c3ccn[nH]3)n1)C[C@@H](C)N(C(=O)c1ccc(F)cc1F)C2 (single isomer, unassigned) [Example 94, (R*)-(2,4-difluorophenyl)(2,6-dimethyl-4-(1H-pyrazol-5-yl)-5,6-dihydropyrido[3,4-d]pyrimidin-7(8H)-yl)methanone]
17 | 11000 nM | – | – | Cc1nc2c(c(-c3ccn[nH]3)n1)C[C@@H](C)N(C(=O)c1ccc(Cl)cc1F)C2 (single isomer, unassigned) [Example 88, (R*)-(4-chloro-2-fluorophenyl)(2,6-dimethyl-4-(1H-pyrazol-5-yl)-5,6-dihydropyrido[3,4-d]pyrimidin-7(8H)-yl)methanone]
18 | 331 nM | 1270 nM | 0.4% | Cc1nc2c(c(-c3ccn[nH]3)n1)CC(C)N(C(=O)c1cccc(F)c1C)C2 (stereo not drawn) [Example 134, (2,6-dimethyl-4-(1H-pyrazol-5-yl)-5,6-dihydropyrido[3,4-d]pyrimidin-7(8H)-yl)(3-fluoro-2-methylphenyl)methanone]
19 | > 10000 nM | > 10000 nM | 20.1% | O=C(c1cccc(C(F)(F)F)c1Cl)N1CCc2c(ncnc2-n2cncn2)C1 [Example 110, (4-(1H-1,2,4-triazol-1-yl)-5,6-dihydropyrido[3,4-d]pyrimidin-7(8H)-yl)(2-chloro-3-(trifluoromethyl)phenyl)methanone]
20 | – | 23.7 nM | -1.3% | CCc1nc2c(c(-c3ccn[nH]3)n1)CC(C)N(C(=O)c1ccc(Cl)c(F)c1Cl)C2 (stereo not drawn) [Example 104, (2,4-dichloro-3-fluorophenyl)(2-ethyl-6-methyl-4-(1H-pyrazol-5-yl)-5,6-dihydropyrido[3,4-d]pyrimidin-7(8H)-yl)methanone]
21 | – | 14.5 nM | -1.3% | Cc1nc2c(c(-c3ccn[nH]3)n1)CC(C)N(C(=O)c1cccc(Cl)c1Cl)C2 (stereo not drawn) [Example 67, (2,3-dichlorophenyl)(2,6-dimethyl-4-(1H-pyrazol-5-yl)-5,6-dihydropyrido[3,4-d]pyrimidin-7(8H)-yl)methanone]
22 | – | 17.8 nM | 2.2% | Cc1nc2c(c(-c3ccnn3C)n1)CC(C)N(C(=O)c1cccc(C(F)(F)F)c1Cl)C2 (stereo not drawn) [Example 73, (2-chloro-3-(trifluoromethyl)phenyl)(2,6-dimethyl-4-(1-methyl-1H-pyrazol-5-yl)-5,6-dihydropyrido[3,4-d]pyrimidin-7(8H)-yl)methanone]
23 | – | 21 nM | -0.6% | CC1c2ncnc(-c3ccn[nH]3)c2CCN1C(=O)c1ccc(F)c(Cl)c1Cl (stereo not drawn) [Example 118, (2,3-dichloro-4-fluorophenyl)(8-methyl-4-(1H-pyrazol-5-yl)-5,6-dihydropyrido[3,4-d]pyrimidin-7(8H)-yl)methanone]
24 | – | 16 nM | -1.8% | CC1c2ncnc(-c3ccn[nH]3)c2CCN1C(=O)c1cccc(C(F)(F)F)c1Cl (stereo not drawn) [Example 112, (2-chloro-3-(trifluoromethyl)phenyl)(8-methyl-4-(1H-pyrazol-5-yl)-5,6-dihydropyrido[3,4-d]pyrimidin-7(8H)-yl)methanone]
25 | 918 nM | – | 0.1% | Cc1nc2c(c(-c3ccn[nH]3)n1)CC(C)N(C(=O)c1ccc(F)cc1C)C2 (stereo not drawn) [Example 133, (2,6-dimethyl-4-(1H-pyrazol-5-yl)-5,6-dihydropyrido[3,4-d]pyrimidin-7(8H)-yl)(4-fluoro-2-methylphenyl)methanone]
26 | – | – | 92.2% | Cc1nc2c(c(-c3ccn[nH]3)n1)CC(C)N(C(=O)c1cc(Cl)ccc1Cl)C2 (stereo not drawn) [Example 86, (2,5-dichlorophenyl)(2,6-dimethyl-4-(1H-pyrazol-5-yl)-5,6-dihydropyrido[3,4-d]pyrimidin-7(8H)-yl)methanone]
27 | – | – | -2.7% | Cc1nc2c(c(-c3ccn[nH]3)n1)CC(C)N(C(=O)c1ccc(Cl)c(F)c1Cl)C2 (stereo not drawn) [Example 70, (2,4-dichloro-3-fluorophenyl)(2,6-dimethyl-4-(1H-pyrazol-5-yl)-5,6-dihydropyrido[3,4-d]pyrimidin-7(8H)-yl)methanone]
28 | – | – | -3.1% | CC1c2ncnc(-c3ccn[nH]3)c2CCN1C(=O)c1ccc(F)c(C(F)(F)F)c1Cl (stereo not drawn) [Example 115, (2-chloro-4-fluoro-3-(trifluoromethyl)phenyl)(8-methyl-4-(1H-pyrazol-5-yl)-5,6-dihydropyrido[3,4-d]pyrimidin-7(8H)-yl)methanone]
